This is an account of results in paper PMC4991450, “Protein arginine methyltransferase 1 may be involved in pregnane x receptor-activated overexpression of multidrug resistance 1 gene during acquired multidrug resistant” (Oncotarget, 2016).

For this experiment, the target named is Protein arginine methyltransferase 1 (PRMT1) (Homo sapiens, UniProt Q99873). Nature of the experiment: Transzyme HMT PRMT1 fluorescence polarization enzyme assay, rescreened at […]. The experiment is classed as biochemical.
Sequence of Protein arginine methyltransferase 1 (PRMT1) (Q99873 whole entry): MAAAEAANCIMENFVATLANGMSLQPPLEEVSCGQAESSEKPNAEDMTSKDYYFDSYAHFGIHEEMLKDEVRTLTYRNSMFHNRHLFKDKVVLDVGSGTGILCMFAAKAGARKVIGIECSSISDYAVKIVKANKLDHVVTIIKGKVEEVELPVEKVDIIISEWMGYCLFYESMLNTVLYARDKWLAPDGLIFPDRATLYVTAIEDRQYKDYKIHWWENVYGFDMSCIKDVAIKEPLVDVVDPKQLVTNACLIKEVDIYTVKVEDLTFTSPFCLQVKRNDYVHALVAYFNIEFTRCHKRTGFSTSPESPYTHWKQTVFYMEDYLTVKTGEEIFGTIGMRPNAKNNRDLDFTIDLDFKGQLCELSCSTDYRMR

Turning to `CCOC(=O)C1=C(C)NC(C)=C(C(=O)OC)C1c1cccc(Cl)c1Cl` (centres unmarked) [felodipline], the “Transzyme HMT PRMT1 fluorescence polarization enzyme assay, rescreened at 0-100” value is “Five compounds were found to inhibit PRMT1 activity, including rutin, isoquercitrin, salvianolic acid A (SAA), naproxen, and felodipline”.

For `O=c1c(O[C@@H]2O[C@H](CO)[C@@H](O)[C@H](O)[C@H]2O)c(-c2ccc(O)c(O)c2)oc2cc(O)cc(O)c12` [isoquercitrin], the “Transzyme HMT PRMT1 fluorescence polarization enzyme assay, rescreened at 0-100” value was “Five compounds were found to inhibit PRMT1 activity, including rutin, isoquercitrin, salvianolic acid A (SAA), naproxen, and felodipline”.

On to `COc1ccc2cc([C@H](C)C(=O)O)ccc2c1` [naproxen], for which the “Transzyme HMT PRMT1 fluorescence polarization enzyme assay, rescreened at 0-100” value is “Five compounds were found to inhibit PRMT1 activity, including rutin, isoquercitrin, salvianolic acid A (SAA), naproxen, and felodipline”.

With `C[C@@H]1O[C@@H](OC[C@H]2O[C@@H](Oc3c(-c4ccc(O)c(O)c4)oc4cc(O)cc(O)c4c3=O)[C@H](O)[C@@H](O)[C@@H]2O)[C@H](O)[C@H](O)[C@H]1O` [rutin], the “Transzyme HMT PRMT1 fluorescence polarization enzyme assay, rescreened at 0-100” value is “Five compounds were found to inhibit PRMT1 activity, including rutin, isoquercitrin, salvianolic acid A (SAA), naproxen, and felodipline”.

In the case of `O=C(/C=C/c1ccc(O)c(O)c1/C=C/c1ccc(O)c(O)c1)O[C@H](Cc1ccc(O)c(O)c1)C(=O)O` [salvianolic acid A], the “Transzyme HMT PRMT1 fluorescence polarization enzyme assay, rescreened at 0-100” value is “Five compounds were found to inhibit PRMT1 activity, including rutin, isoquercitrin, salvianolic acid A (SAA), naproxen, and felodipline”.
